Assay results as given in paper PMC8277899, “A novel RyR1-selective inhibitor prevents and rescues sudden death in mouse models of malignant hyperthermia and heat stroke” (Nature Communications, 2021).
“And” between values parts separate entries of the source, which are not always exact repeats. Equal entries are not always repeated. Where two headings read alike, the source gives them in different places.

Assays:
[1] = test system: FDB muscle cells from R2509C mice; assay: Mn2+ quench of fura-2 fluorescence in isolated FDB cells from R2509C mice; assay type: cell-based, mouse; conditions: 0.1 μM
Procedure: WT and mutant mice (R2509C, 8- to 20-week old; R163C, 12- to 16-week old, and G2435R, 12- to 16-week old) were euthanized and flexor digitorum brevis (FDB) muscles were dissected and incubated with 2 mg/mL collagenase (Worthington Biochemical Co., NJ, USA) in the HEPES-Krebs solution containing 2 mg/mL bovine serum albumin for 2–3 h at 37 °C. Following incubation, single cells were separated by gentle trituration in collagenase-free HEPES-Krebs solution. Isolated single FDB cells were seeded on a laminin-coated cover slip of the 35 mm glass-bottom dish or on 96 well plate coated with Cultrex basement membrane matrix (Trevigen, Minneapolis, USA).
Isolated single FDB cells were incubated with 4 µM Cal520-AM (AAT Bioquest, CA, USA) or fura-2-AM (Thermo Fisher Scientific) dye in the HEPES-Krebs solution (140 mM NaCl, 5 mM KCl, 2 mM CaCl2, 1 mM MgCl2, 11 mM glucose, 5 mM HEPES, pH 7.4) for 30 min at 37 °C. The cells were then washed three times with the HEPES-Krebs solution to remove excess dye, and after 30 min of de-esterification, fluorescence images were obtained with a 20X (NA = 0.75) objective lens of an inverted microscope (Nikon TE2000-E Japan) equipped with the sCMOS camera (Zyla, Andor, Belfast, Northern Ireland) using Metamorph v7 (Molecular Devices). Cal520 was excited at 480 ± 15 nm, and fluorescence was measured at wavelengths of 525 ± 25 nm. […]

R2509C mice = assay type: in vivo, mouse
[2] = preventive, 10 mg/kg 10 min before heat stress

## CCCCCCCCn1cc(C(=O)O)c(=O)c2cc3c(cc21)OCO3 [Cpd1, 6,7-(methylenedioxy)-1-octyl-4-quinolone-3-carboxylic acid]
[1]
  effect on rate of Mn2+ quench: no effect
R2509C mice; 1 mg/kg i.p. 8 times at 10 min intervals, heat stress
  effect on rise in rectal temperature: successfully prevented rise in the rectal temperature
R2509C mice; 1 mg/kg i.p. 8 times every 10 min
  Survival 90 min after heat stress challenge (survivors/total): all the mice survived
R2509C mice; 3 mg/kg, preliminary experiments
  preventive effect in heat stress experiments: no effect
R2509C mice; preventive, 10 mg/kg
  effect on rate of temperature rise: slowed the rate of temperature rise
R2509C mice; [2]
  Survival 120 min after heat stress challenge (survivors/total): 0 out of 4 and 0/4
  Time to death from start of heat stress challenge: 115.67 min and 109.33 min and 83.5 min and 85 min
R2509C mice; rescue, 3 mg/kg i.p. at 38 °C
  Survival 60 min after administration (survivors/total): 5/6
R2509C mice; rescue, 3 mg/kg i.p. at 39 °C, 3 mg/kg
  Survival 60 min after administration (survivors/total): 3/5 and 3 out of 5
R2509C mice; rescue, 10 mg/kg i.p. at 38 °C
  Survival 60 min after administration (survivors/total): 6/6
R2509C mice; rescue, 10 mg/kg i.p. at 39 °C, 10 mg/kg
  Survival 60 min after administration (survivors/total): 10/11 and 10 out of 11
R2509C mice; rescue, 3 and 10 mg/kg i.p. at 38 °C
  effect on continued rise in body temperature: strongly suppressed
